Values after ≈ are worked out from the molar mass of the structure shown. Read-outs that look alike come from different tables or passages of the source. Residues, ends and D or L forms follow the SMILES beside them.
Legend:
C. albicans ATCC 10231 = type: cell-based, Candida albicans
Text: (§1) The Acinetobacter baumannii ATCC BAA-1605, Candida albicans ATCC 10231, Enterococcus faecium ATCC 700221, Klebsiella aerogenes ATCC 13048 (previously known as Enterobacter aerogenes), Klebsiella pneumoniae ATCC 700603, Pseudomonas aeruginosa ATCC 9027, Staphylococcus aureus ATCC 25923 and MRSA ATCC 33591, were acquired from the American Type Culture Collection (ATCC). Before running the tests, beads with cryo-protected microorganisms were transferred into fresh MHB (BioMaxima, Lublin, Poland) for bacteria or RPMI-1640 for fungi and incubated for 24 h at 37 °C. Then, the culture was seeded on the Mueller-Hinton agar (MHA) plates (BioMaxima, Lublin, Poland) for bacteria or Sabouraud dextrose agar (SDA) plates (BioMaxima, Lublin, Poland) for fungi and incubated as just mentioned. Cell densities for all assays were adjusted spectrophotometrically (Multiskan™ GO Microplate Spectrophotometer, Thermo Fisher Scientific, Vantaa, Finland) at 600 nm for bacteria and at 530 nm for fungi.
(§2) The MICs were determined by broth microdilution method according to the Clinical and Laboratory Standard Institute guidelines. For this purpose initial inoculums of bacteria (5 × 10^5 CFU/mL) in MHB (BioMaxima, Lublin, Poland) and fungi (2 × 10^3 CFU/mL) in RPMI-1640 with 2% D-glucose (Merck, Darmstadt, Germany) prepared with MOPS (pH 7.0 ± 0.1 at 25 °C; Merck, Darmstadt, Germany) were exposed to the ranging concentration of lipopeptides (0.5–256 µg/mL) and incubated at 37 °C for 18 h and 24 h respectively. The experiments were conducted on 96-well microtiter polystyrene plates (Kartell, Italy). The MIC was taken as the lowest peptide concentration at which a noticeable growth of microorganisms was inhibited. All experiments were conducted in triplicate.

[1] = test system: S. aureus ATCC 33591 (MRSA); type: cell-based, Staphylococcus aureus; settings: ATCC 33591, 18 h
Text: as §1, §2

S. aureus ATCC 25923 = type: cell-based, Staphylococcus aureus; settings: ATCC 25923, 18 h
Text: as §1, §2

[2] = test system: human red blood cells (hRBCs); type: cell-based; settings: red cells of human, 1 h
Procedure: The hemolysis assay was performed as described earlier according to the method of Avrahami and Shai. Fresh human red blood cells (hRBCs) with anticoagulant (EDTA) were rinsed three times with a PBS (Merck, Darmstadt, Germany) by centrifugation at 800× g for 10 min and resuspended in PBS. Lipopeptides were serially diluted on 96-well microtiter polystyrene plate and hRBCs were added to reach final volume of 100 µL. Peptide concentration ranged between 0.5 and 256 µg/mL and final hRBCs concentration was 4% (v/v). Controls for zero hemolysis (blank) and 100% hemolysis consisted of hRBCs suspended in PBS and 1% of Triton-X 100 (Merck, Darmstadt, Germany), respectively. The plate was incubated for 1 h at 37 °C and then centrifuged (800× g, 10 min, 4 °C). Subsequently, supernatant was […] to new microtiter plates and absorbance at 540 nm were measured. All experiments were conducted in triplicate. Protocol of the study received approval from the local Bioethics Committee at the Medical University of Gdańsk (NKBBN/262/2019).

E. faecium ATCC 700221 = type: cell-based, Enterococcus faecium; settings: ATCC 700221, 18 h
Text: as §1, §2

K. aerogenes ATCC 13048 = type: cell-based, Klebsiella aerogenes; settings: ATCC 13048, 18 h
Text: as §1, §2

[3] = test system: K. pneumoniae ATCC 700603; type: cell-based, Klebsiella pneumoniae; settings: ATCC 700603, 18 h
Text: as §1, §2

[4] = test system: A. baumannii ATCC BAA-1605; type: cell-based, Acinetobacter baumannii; settings: ATCC BAA-1605, 18 h
Text: as §1, §2

[5] = Determination of peptide hydrophobicity with RP-HPLC (adjusted retention time); type: physicochemical; settings: RP-HPLC C18, linear 10–55% acetonitrile over 60 min, 0.1% TFA, 25.0 °C, UV 214 nm, triplicate; for tR’: Table 3, adjusted retention time as hydrophobicity; for Adjusted retention time: Table 2, nC = carbon atoms in fatty acid chain
Procedure: To determine peptide hydrophobicity, the Waters Alliance e2695 system with a Waters 2998 PDA Detector (software-Empower®3) was used. All analyses were carried out on a Phenomenex Luna C18(2) column (3.0 × 100 mm, 5 µm particle size, 100 Å pore size). The peptides were dissolved in water (0.1% TFA, v/v) to obtain a concentration of 1 g/L. UV detection at 214 nm was used, and aliquots (10 µL) were eluted with a linear 10–55% acetonitrile gradient in deionized water over 60 min at 25.0 ± 0.1 °C. The mobile phase flow rate was 0.5 mL/min. Both eluents contained 0.1% (v/v) of TFA. Each peptide sample was analyzed in triplicate.

P. aeruginosa ATCC 9027 = type: cell-based, Pseudomonas aeruginosa; settings: ATCC 9027, 18 h
Text: as §1, §2

Row | MIC CA (C. albicans ATCC 10231; C. albicans ATCC 10231, RPMI-1640 with 2% D-glucose, MOPS pH 7.0, 2 × 10^3 CFU/mL, 0.5–256 µg/mL, 37 °C, 24 h, triplicate) | MIC S [1] | MIC SA (S. aureus ATCC 25923) | HC50 [2] | MIC E1 (E. faecium ATCC 700221) | MIC E2 (K. aerogenes ATCC 13048) | MIC K [3] | MIC A [4] | tR’ [5] | MIC PA (P. aeruginosa ATCC 9027) | MIC CA (C. albicans ATCC 10231; ATCC 10231, 24 h, pH 7) | Adjusted retention time [5] | SMILES
1 | 4 mg/L (≈ 7.04 µM) | 8 mg/L (≈ 14.1 µM) | 8 mg/L (≈ 14.1 µM) | 22.91 (±1.18) µg/mL | 8 mg/L (≈ 14.1 µM) | 32 mg/L (≈ 56.4 µM) | 32 µg/mL (≈ 56.4 µM) | 32 mg/L (≈ 56.4 µM) | 46.51 min | 16 mg/L (≈ 28.2 µM) | – | – | CCCCCCCCCCCCCCCC(=O)N[C@@H](CCCNC(=N)N)C(=O)N[C@@H](CCCNC(=N)N)C(N)=O [compound 5, C16-RR-NH2, reference compound] (HELM PEPTIDE1{[CCCCCCCCCCCCCCCC(=O)[*:2]].R.R.[am]}$$$$V2.0)
2 | – | 8 mg/L (≈ 12.3 µM) | 4 mg/L (≈ 6.13 µM) | 37.54 (±1.39) µg/mL | 8 mg/L (≈ 12.3 µM) | 32 mg/L (≈ 49 µM) | 32 µg/mL (≈ 49 µM) | 64 mg/L (≈ 98 µM) | – | 4 mg/L (≈ 6.13 µM) | 4 mg/L (≈ 6.13 µM) | 46.681 min | CCCCCCCCCCCCCC(=O)N[C@@H](CCCC)C(=O)N[C@@H](CCCNC(=N)N)C(=O)N[C@@H](CCCNC(=N)N)C(N)=O [compound 66, C14-NleRR-NH2] (HELM PEPTIDE1{[CCCCCCCCCCCCCC(=O)[*:2]].[Nle].R.R.[am]}$$$$V2.0)
3 | – | 16 mg/L (≈ 26.2 µM) | 16 mg/L (≈ 26.2 µM) | 246.30 (±14.12) µg/mL | 16 mg/L (≈ 26.2 µM) | 256 mg/L (≈ 419 µM) | >256 (-) µg/mL | 128 mg/L (≈ 210 µM) | 37.17 min | 32 mg/L (≈ 52.4 µM) | 32 mg/L (≈ 52.4 µM) | – | CCCCCCCCCCCC(=O)N[C@H](C(=O)N[C@@H](CCCNC(=N)N)C(=O)N[C@@H](CCCNC(=N)N)C(N)=O)C(C)C [compound 93, C12-VRR-NH2] (HELM PEPTIDE1{[CCCCCCCCCCCC(=O)[*:2]].V.R.R.[am]}$$$$V2.0)
4 | – | 8 mg/L (≈ 12.6 µM) | 16 mg/L (≈ 25.1 µM) | 53.41 (±1.84) µg/mL | 8 mg/L (≈ 12.6 µM) | 256 mg/L (≈ 402 µM) | 256 µg/mL (≈ 402 µM) | 64 mg/L (≈ 100 µM) | 42.61 min | 16 mg/L (≈ 25.1 µM) | 8 mg/L (≈ 12.6 µM) | – | CCCCCCCCCCCCCC(=O)N1CCC[C@H]1C(=O)N[C@@H](CCCNC(=N)N)C(=O)N[C@@H](CCCNC(=N)N)C(N)=O [compound 74, C14-PRR-NH2]
5 | – | 4 mg/L (≈ 5.69 µM) | 4 mg/L (≈ 5.69 µM) | 46.52 (±5.24) µg/mL | 4 mg/L (≈ 5.69 µM) | 64 mg/L (≈ 91 µM) | 32 µg/mL (≈ 45.5 µM) | 32 mg/L (≈ 45.5 µM) | 42.73 min | 8 mg/L (≈ 11.4 µM) | 4 mg/L (≈ 5.69 µM) | – | CCCCCCCCCCCCCC(=O)N[C@@H](Cc1ccc(O)cc1)C(=O)N[C@@H](CCCNC(=N)N)C(=O)N[C@@H](CCCNC(=N)N)C(N)=O [compound 102, C14-YRR-NH2] (HELM PEPTIDE1{[CCCCCCCCCCCCCC(=O)[*:2]].Y.R.R.[am]}$$$$V2.0)
6 | – | 8 mg/L (≈ 14.8 µM) | 8 mg/L (≈ 14.8 µM) | 68.43 (±1.41) µg/mL | 8 mg/L (≈ 14.8 µM) | 256 mg/L (≈ 474 µM) | 256 µg/mL (≈ 474 µM) | 64 mg/L (≈ 119 µM) | 39.79 min | 32 mg/L (≈ 59.3 µM) | 8 mg/L (≈ 14.8 µM) | – | CCCCCCCCCCCCCC(=O)N[C@@H](CCCNC(=N)N)C(=O)N[C@@H](CCCNC(=N)N)C(N)=O [compound 4, C14-RR-NH2, reference compound] (HELM PEPTIDE1{[CCCCCCCCCCCCCC(=O)[*:2]].R.R.[am]}$$$$V2.0)
7 | – | 2 mg/L (≈ 2.75 µM) | 4 mg/L (≈ 5.51 µM) | 36.91 (±0.89) µg/mL | 8 mg/L (≈ 11 µM) | 32 mg/L (≈ 44.1 µM) | 64 µg/mL (≈ 88.2 µM) | 128 mg/L (≈ 176 µM) | 47.11 min | 8 mg/L (≈ 11 µM) | 4 mg/L (≈ 5.51 µM) | – | CCCCCCCCCCCCCC(=O)N[C@@H](Cc1c[nH]c2ccccc12)C(=O)N[C@@H](CCCNC(=N)N)C(=O)N[C@@H](CCCNC(=N)N)C(N)=O [compound 98, C14-WRR-NH2] (HELM PEPTIDE1{[CCCCCCCCCCCCCC(=O)[*:2]].W.R.R.[am]}$$$$V2.0)
8 | – | 16 mg/L (≈ 25.5 µM) | 16 mg/L (≈ 25.5 µM) | 41.54 (±1.29) µg/mL | 16 mg/L (≈ 25.5 µM) | 128 mg/L (≈ 204 µM) | 128 µg/mL (≈ 204 µM) | 32 mg/L (≈ 51 µM) | 39.72 min | 32 mg/L (≈ 51 µM) | 32 mg/L (≈ 51 µM) | – | CCCCCCCCCCCCCC(=O)N[C@@H](CO)C(=O)N[C@@H](CCCNC(=N)N)C(=O)N[C@@H](CCCNC(=N)N)C(N)=O [compound 86, C14-SRR-NH2] (HELM PEPTIDE1{[CCCCCCCCCCCCCC(=O)[*:2]].S.R.R.[am]}$$$$V2.0)
9 | – | 4 mg/L (≈ 6.26 µM) | 4 mg/L (≈ 6.26 µM) | 30.73 (±0.41) µg/mL | 16 mg/L (≈ 25 µM) | 128 mg/L (≈ 200 µM) | 128 µg/mL (≈ 200 µM) | 32 mg/L (≈ 50.1 µM) | 44.02 min | 8 mg/L (≈ 12.5 µM) | 8 mg/L (≈ 12.5 µM) | – | CCCCCCCCCCCCCC(=O)N[C@H](C(=O)N[C@@H](CCCNC(=N)N)C(=O)N[C@@H](CCCNC(=N)N)C(N)=O)C(C)C [compound 94, C14-VRR-NH2] (HELM PEPTIDE1{[CCCCCCCCCCCCCC(=O)[*:2]].V.R.R.[am]}$$$$V2.0)
10 | – | 16 mg/L (≈ 24.5 µM) | 4 mg/L (≈ 6.13 µM) | 29.50 (±1.05) µg/mL | 8 mg/L (≈ 12.3 µM) | 128 mg/L (≈ 196 µM) | 128 µg/mL (≈ 196 µM) | 64 mg/L (≈ 98 µM) | 46.44 min | 4 mg/L (≈ 6.13 µM) | 4 mg/L (≈ 6.13 µM) | 46.441 min | CCCCCCCCCCCCCC(=O)N[C@@H](CC(C)C)C(=O)N[C@@H](CCCNC(=N)N)C(=O)N[C@@H](CCCNC(=N)N)C(N)=O [compound 46, C14-LRR-NH2] (HELM PEPTIDE1{[CCCCCCCCCCCCCC(=O)[*:2]].L.R.R.[am]}$$$$V2.0)
11 | – | 16 mg/L (≈ 24 µM) | 16 mg/L (≈ 24 µM) | 72.31 (±3.00) µg/mL | 16 mg/L (≈ 24 µM) | 256 mg/L (≈ 383 µM) | 256 µg/mL (≈ 383 µM) | 64 mg/L (≈ 95.8 µM) | 38.52 min | 32 mg/L (≈ 47.9 µM) | 32 mg/L (≈ 47.9 µM) | – | CCCCCCCCCCCCCC(=O)N[C@@H](CCC(N)=O)C(=O)N[C@@H](CCCNC(=N)N)C(=O)N[C@@H](CCCNC(=N)N)C(N)=O [compound 78, C14-QRR-NH2] (HELM PEPTIDE1{[CCCCCCCCCCCCCC(=O)[*:2]].Q.R.R.[am]}$$$$V2.0)
